The values that follow come from patent US9669036B2, “Modulation of reactivation of a latent virus” (priority 2013, dated 2017).

The subject of the experiment is latent HSV-1(F). It is filed as cell-based. As to conditions: for accumulation of viral mRNAs with cycloheximide compared with the drug alone / amounts of the LAT and miRNAs in cycloheximide-treated ganglia compared with the drug alone: cycloheximide 150 μg/ml, TSA 400 nM or NSC74859 10 μM; for reactivation of HSV in trigeminal ganglia: ganglia harvested 30 days after infection, TSA 400 nM, MS275 or MC1568 10 μM, 20 μM; for lowest effective concentration: activation of latent HSV; for lowest effective concentration / Significant Activation of Latent HSV: ganglionic organ cultures in medium containing NGF and EGF; for Significant Activation of Latent HSV: three concentrations tested.

The mark [1] stands for this setting: medium containing NGF and EGF, 24 h.
[2] abbreviates: NGF+EGF medium, 24 h, CTB 200 μM, 500 μM.

Regarding `Cc1ccc(S(=O)(=O)OCC(=O)Nc2ccc(C(=O)O)c(O)c2)cc1` [NSC74859], under “NGF+EGF medium, 24 h”, the “accumulation of viral mRNAs with cycloheximide compared with the drug alone” value is “consistently lower”; the “amounts of the LAT and miRNAs in cycloheximide-treated ganglia compared with the drug alone” value is “higher”. The “representatives of all four temporally regulated groups of viral genes (ICP27, TK, VP16, UL41 mRNAs)” value (NGF+EGF medium, 24 h after excision, NSC74859 10 mM and 50 μM) was “upregulated”.

With `Cn1cc(/C=C/C(=O)c2cccc(F)c2)cc1/C=C/C(=O)NO` [MC1568, (E)-3-(4-((E)-3-(3-fluorophenyl)-3-oxoprop-1-enyl)-1-methyl-1H-pyrrol-2-yl)-N-hydroxyacrylamide], the “reactivation of HSV in trigeminal ganglia” value under setting [1] is on record as “induced the reactivation of HSV”. In the case of `CS(=O)(=O)N1CCN(Cc2cc3nc(-c4cccc5[nH]ncc45)nc(N4CCOCC4)c3s2)CC1` [GDC-0941], the lowest effective concentration (24 h) came to 10 nM lowest effective. Further, the “Significant Activation of Latent HSV” value (24 h after excision) is recorded as “Yes”. As for `O=C(Nc1ccc2c(O)cc(S(=O)(=O)O)cc2c1)Nc1ccc2c(O)cc(S(=O)(=O)O)cc2c1` [AMI-1], under “24 h after excision”, the “Significant Activation of Latent HSV” value is “No”. Besides, the “Comments: activation of latent HSV” value (medium containing NGF and EGF, all concentrations tested) is “No activation”. Take `COc1cc2c(NC3CCN(C(C)C)CC3)nc(C3CCCCC3)nc2cc1OCCCN1CCCC1` [UNC0638]: the “Significant Activation of Latent HSV” value (24 h after excision) was “No”. Regarding `COc1cc(/C=C/C(=O)CC(=O)/C=C/c2ccc(O)c(OC)c2)ccc1O` [curcumin], the “reactivation of HSV and degradation of the LAT and miRNAs” value (curcumin 100 μM, 300 μM, 24 h, independent of medium (NGF+EGF or antibody to NGF)) is “blocked”. Moreover, the “accumulation of the LAT” value (curcumin at the higher concentration (300 μM)) is “suppressed”. For the same compound, the “accumulation of small amounts of mRNAs normally detected at the time of excision of the ganglia” value (medium containing antibody to NGF, compared with freshly excised ganglia) is reported as “suppressed”. As to `Cc1sc2c(c1C)C(c1ccc(Cl)cc1)=N[C@@H](CC(=O)OC(C)(C)C)c1nnc(C)n1-2` [JQ1], the “Significant Activation of Latent HSV” value (24 h after excision) is on record as “No”.

Regarding `NC1(c2ccc(-c3nc4ccn5c(=O)[nH]nc5c4cc3-c3ccccc3)cc2)CCC1` [MK-2206], the lowest effective concentration (24 h) stood at 2.5 nM lowest effective. Also, the “Significant Activation of Latent HSV” value (24 h after excision) was “Yes”. Compound `Cn1c(=O)n(-c2ccc(C(C)(C)C#N)cc2)c2c3cc(-c4cnc5ccccc5c4)ccc3ncc21` [BEZ-235] returned a lowest effective concentration (24 h) of 40 nM lowest effective. Also, the “Significant Activation of Latent HSV” value (24 h after excision) was “Yes”. In the case of `Nc1ccccc1NC(=O)c1ccc(CNC(=O)OCc2cccnc2)cc1` [MS275, pyridin-3-ylmethyl 4-((2-aminophenyl)carbamoyl)benzylcarbamate], under setting [1], the “reactivation of HSV in trigeminal ganglia” value is reported as “induced the reactivation of HSV”. For the compound `CO[C@H]1C[C@@H]2CC[C@@H](C)[C@@](O)(O2)C(=O)C(=O)N2CCCC[C@H]2C(=O)O[C@H]([C@H](C)C[C@@H]2CC[C@@H](O)[C@H](OC)C2)CC(=O)[C@H](C)/C=C(\C)[C@@H](O)[C@@H](OC)C(=O)[C@H](C)C[C@H](C)/C=C/C=C/C=C/1C` [Rapamycin], the lowest effective concentration (24 h) was determined as 1 nM lowest effective. Where the note is “24 h”, `Cc1[nH]c2ccccc2c1CCNCc1ccc(/C=C/C(=O)NO)cc1` [Panobinostat] returned a lowest effective concentration of 0.5 nM lowest effective. As for `CC(/C=C/C(=O)NO)=C\[C@@H](C)C(=O)c1ccc(N(C)C)cc1` [TSA, Trichostatin A], under “NGF+EGF medium, 24 h”, the “accumulation of viral mRNAs with cycloheximide compared with the drug alone” value is on record as “similar”; the “amounts of the LAT and miRNAs in cycloheximide-treated ganglia compared with the drug alone” value is on record as “higher”. Further, the “accumulation of mRNAs relative to freshly excised ganglia” value (NGF+EGF+TSA (400 nM), with or without cycloheximide 150 μg/ml, 24 h) worked out at 10 fold. For the same compound, the “reactivation of HSV in trigeminal ganglia” value under setting [1] was “induced the reactivation of HSV”. For `CCOc1ccccc1C(=O)Nc1ccc(Cl)c(C(F)(F)F)c1` [CTB, N-(4-Chloro-3-trifluoromethyl-phenyl)-2-ethoxy-benzamide], under setting [2], the “decrease of miRNAs and the LAT following exposure to the drug” value is listed as “approximately 10 fold”; the “increase of all viral mRNAs following exposure to the drug” value is on record as “approximately 50 fold”. Regarding `C[C@@H]1CCN(C(=O)CC#N)C[C@@H]1N(C)c1ncnc2[nH]ccc12` [Tofacitinib], the “Significant Activation of Latent HSV” value (24 h after excision) is given as “No”.
